This note sets out measurements from patent publication US8268862B2, “Sirtuin modulating compounds” (Sirtris Pharmaceuticals, Inc., priority 2007, dated 2012).

The structures appear in SMILES notation.

The target in this test is T1, SIRT1 (Homo sapiens, UniProt Q96EB6).
T1 sequence (Q96EB6 1-747): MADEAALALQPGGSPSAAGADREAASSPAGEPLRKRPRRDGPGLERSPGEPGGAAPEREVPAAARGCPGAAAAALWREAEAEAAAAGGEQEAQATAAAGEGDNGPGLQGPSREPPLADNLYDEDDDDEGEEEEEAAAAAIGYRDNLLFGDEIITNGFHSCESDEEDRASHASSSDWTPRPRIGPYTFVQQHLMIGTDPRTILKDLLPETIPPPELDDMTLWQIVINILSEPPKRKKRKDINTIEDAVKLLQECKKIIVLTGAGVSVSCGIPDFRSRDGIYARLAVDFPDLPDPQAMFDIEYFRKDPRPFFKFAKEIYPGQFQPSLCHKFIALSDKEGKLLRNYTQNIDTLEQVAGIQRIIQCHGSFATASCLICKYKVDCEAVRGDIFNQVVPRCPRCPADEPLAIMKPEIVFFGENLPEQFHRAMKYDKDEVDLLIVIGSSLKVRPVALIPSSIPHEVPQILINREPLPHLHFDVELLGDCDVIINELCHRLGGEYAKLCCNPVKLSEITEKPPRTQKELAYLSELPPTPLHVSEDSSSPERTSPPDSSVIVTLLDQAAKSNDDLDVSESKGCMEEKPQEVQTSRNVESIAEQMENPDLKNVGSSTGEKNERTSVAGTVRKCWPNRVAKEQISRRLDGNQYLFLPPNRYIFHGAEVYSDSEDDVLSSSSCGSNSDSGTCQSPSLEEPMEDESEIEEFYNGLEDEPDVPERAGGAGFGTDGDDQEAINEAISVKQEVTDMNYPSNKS
In words: mass spectrometry based SIRT1 deacetylation assay (activation). Type of test: biochemical. To be noted: 0.5 μM peptide substrate, 120 μM βNAD+, 10 nM SIRT1, 25 min at 25° C.; for EC1.5 (concentration of test compound that results in 150% activation of SIRT1): NA = not active in the assay; for Emax: read-out: % FOLD ACT. (percent maximum fold activation of SIRT1).

Consider `COCCN1CCN(Cc2cnc3sc(-c4ccccc4NC(=O)c4cccc(-c5cc(F)ccc5F)n4)nc3c2)CC1` [Compound 145], for which the “EC1.5 (concentration of test compound that results in 150% activation of SIRT1)” value worked out at 86 NM and the Emax came out at 500%.

Turning to `COCCN1CCN(Cc2cnc3sc(-c4ccccc4NC(=O)c4cccc(-c5cccc(F)c5F)n4)nc3c2)CC1` [Compound 146], the “EC1.5 (concentration of test compound that results in 150% activation of SIRT1)” value stood at 127 NM and the Emax was 500%.

As to `[2H]c1c([2H])c([2H])c(-c2cccc(C(=O)Nc3ccccc3-c3nc4cc(CN5CCCC5)cnc4s3)c2)c([2H])c1[2H]` [Compound 147], the “EC1.5 (concentration of test compound that results in 150% activation of SIRT1)” value was found to be 845 NM and the Emax came to 224%.

`COCCN1CCN(Cc2cnc3sc(-c4ccccc4NC(=O)c4cccc(-c5cccc(C#N)c5)n4)nc3c2)CC1` [Compound 148]: the “EC1.5 (concentration of test compound that results in 150% activation of SIRT1)” value was determined as 40 NM and the Emax amounted to 500%.

Take `O=C(Nc1ccccc1-c1nc2cc(CN3CCCC3=O)cnc2s1)c1cccc(-c2ccccc2)c1` [Compound 149]: the “EC1.5 (concentration of test compound that results in 150% activation of SIRT1)” value turned out to be 557 NM and the Emax amounted to 216%.

For the molecule `Cn1cc(-c2ccccc2)cc1C(=O)Nc1ccccc1-c1nc2cc(CN3CCOCC3)cnc2s1` [Compound 150], the “EC1.5 (concentration of test compound that results in 150% activation of SIRT1)” value was found to be 67 NM and the Emax was 267%.

Regarding `Cn1cc(-c2ccccc2)cc1C(=O)Nc1ccccc1-c1nc2cc(CN3CCCC3)cnc2s1` [Compound 151], the “EC1.5 (concentration of test compound that results in 150% activation of SIRT1)” value came to 591 NM and the Emax turned out to be 170%.

With `COCCN1CCN(Cc2cnc3sc(-c4ccccc4NC(=O)c4cc(-c5ccccc5)n[nH]4)nc3c2)CC1` [Compound 152], the “EC1.5 (concentration of test compound that results in 150% activation of SIRT1)” value turned out to be 321 NM and the Emax was more than 500%.

Consider `O=C(Nc1ccccc1-c1nc2cc(CN3CCCC3)cnc2s1)c1cc(-c2ccccc2)n[nH]1` [Compound 153], for which the “EC1.5 (concentration of test compound that results in 150% activation of SIRT1)” value worked out at 829 NM and the Emax is 226%.

With `O=C(Nc1ccccc1-c1nc2cc(CN3CCCC3)cnc2s1)c1ccn(-c2ccccc2)n1` [Compound 154], the “EC1.5 (concentration of test compound that results in 150% activation of SIRT1)” value stood at 428 NM and the Emax was 277%.

In the case of `COCCN1CCN(Cc2cnc3sc(-c4ccccc4NC(=O)c4ccn(-c5ccccc5)n4)nc3c2)CC1` [Compound 155], the “EC1.5 (concentration of test compound that results in 150% activation of SIRT1)” value is 141 NM and the Emax turned out to be 364%.

Regarding `O=C(Nc1ccccc1-c1nc2cc(CN3CCOCC3)cnc2s1)c1ccn(-c2ccccc2)n1` [Compound 156], the “EC1.5 (concentration of test compound that results in 150% activation of SIRT1)” value worked out at 674 NM and the Emax amounted to 443%.
